Measured values: patent US20090149429A1, “ANTIVIRAL COMPOUNDS” (Myriad Genetics, Incorporated, priority 2005, published 2009)

System: mock-infected MT-4 cells
Experiment: Compound toxicity in mock-infected MT-4 cells (WST-1 assay)
Format: cell-based
Settings: four days incubation, read-out: TC50 (concentration of compound that results in death of 50% of the host cells)
Experimental: The HTLV-1 transformed T cell line, MT-4, is highly susceptible to HIV-1 infection. Anti-HIV-1 agents were evaluated in this target cell line by protection from the HIV-induced cytopathic effect. In this assay, viability of both HIV-1 and mock-infected cells was assessed in a […] assay that monitors the ability of metabolically-active cells to reduce the tetrazolium salt WST-1. Cytoprotection by antiviral compounds is indicated by the positive readout of increased WST-1 cleavage.
Briefly, exponentially growing MT-4 cells were mock-infected or batch-infected with the HIV-1 laboratory strain, NL4-3, at a multiplicity of infection of 0.0005. Following a two hour infection, the cells were washed to remove unbound virus and plated in the presence of increasing concentrations of compound. After four days incubation, cytoprotection in the infected cells and compound toxicity in mock-infected cells were analyzed using the WST-1 assay.

Compound | CC50 [µM]
C=C(C)[C@@H]1CC[C@]2(C(=O)NCc3ccc(C(=O)O)cc3)CC[C@]3(C)[C@H](CC[C@@H]4[C@@]5(C)CC[C@H](OC(=O)CC(C)(C)C(=O)O)C(C)(C)[C@@H]5CC[C@]43C)[C@@H]12 [Compound 37] | ~7.7
C=C(C)[C@@H]1CC[C@]2(C(=O)NCc3ccccc3C(=O)O)CC[C@]3(C)[C@H](CC[C@@H]4[C@@]5(C)CC[C@H](OC(=O)CC(C)(C)C(=O)O)C(C)(C)[C@@H]5CC[C@]43C)[C@@H]12 [Compound 39] | ~6.3
